Results from patent publication US11214803B2, “Modulators of YAP1 expression” (Ionis Pharmaceuticals, Inc., priority 2019, dated 2022).
Strand notation (5' to 3'): a small letter for the sugar, then the base; units joined by * are phosphorothioate-linked, units joined directly phosphodiester-linked; [ ] holds rarer units or linkages, { } end groups; capitals alone tell only the bases. k = constrained ethyl (cEt); [5mC] = 5-methylcytosine; d = 2'-deoxy (DNA)

These substances were tested on Yap1 mRNA (assay: Antisense inhibition of human Yap1 in A-431 cells by cEt gapmers, single dose (Example 2, RTS4814)). Details: A-431 cells, 5,000 cells per well, free uptake, 2,000 nM modified oligonucleotide, approx. 48 hours, RTS4814, normalized to RIBOGREEN; Table 4; asterisk (*) = targets amplicon region of primer probe set.
Assay type: cell-based
Summary of the method: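 A-431 cells (5,000/well) took up 2,000 nM 3-10-3 cEt gapmer by free uptake for ~48 h. Yap1 mRNA was quantified by qRT-PCR with primer probe set RTS4814, normalized to RIBOGREEN total RNA, and reported as % of untreated control.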

| Substance | YAP1 (% UTC) |
| --- | --- |
| 716547 (kG*kG*kT*dA*dT*dG*dA*dA*dT*dT*d[5mC]*dT*dG*kA*kA*kT; antisense) [Compound 716547] | 44 % UTC |
| 716427 (kA*kG*k[5mC]*d[5mC]*d[5mC]*d[5mC]*d[5mC]*dA*dA*dA*dA*dT*dG*kA*kA*k[5mC]; antisense) [Compound 716427] | 86 % UTC |
| 716460 (kT*kA*kT*dT*d[5mC]*dT*dA*dA*dA*dT*dG*d[5mC]*dA*kT*kA*k[5mC]; antisense) [Compound 716460] | 86 % UTC |
| 716475 (k[5mC]*kT*kT*d[5mC]*d[5mC]*dA*dA*dA*dA*d[5mC]*dT*dA*dA*kG*kG*k[5mC]; antisense) [Compound 716475] | 63 % UTC |
| 716472 (kG*kT*k[5mC]*dA*dT*dG*d[5mC]*dA*d[5mC]*dA*dT*dT*dA*kT*kG*kA; antisense) [Compound 716472] | 78 % UTC |
| 716454 (k[5mC]*kG*kA*dG*dA*dT*dT*dT*dA*dA*dA*dT*dA*kA*kG*kG; antisense) [Compound 716454] | 27 % UTC |

Same assay, conditions: Table 5; A-431 cells, 5,000 cells per well, free uptake, 2,000 nM modified oligonucleotide, approx. 48 hours; RTS4814; normalized to RIBOGREEN; Yap1 mRNA relative to untreated control cells

| Substance | YAP1 (% UTC) |
| --- | --- |
| 716440 (k[5mC]*kT*k[5mC]*dT*dT*d[5mC]*dA*dA*dA*dT*d[5mC]*dA*dG*k[5mC]*kA*kT; antisense) [Compound 716440] | 45 % UTC |
| 716359 (k[5mC]*k[5mC]*k[5mC]*d[5mC]*dT*dG*dA*d[5mC]*d[5mC]*d[5mC]*dA*dG*dG*k[5mC]*kG*kA; antisense) [Compound 716359] | 101 % UTC |
| 716572 (k[5mC]*kA*kG*dT*dA*dA*dG*dA*dA*dG*d[5mC]*d[5mC]*dA*kA*kA*kA; antisense) [Compound 716572] | 122 % UTC |

Same assay, conditions: Table 6; A-431 cells, 5,000 cells per well, free uptake, 2,000 nM modified oligonucleotide, approx. 48 hours; RTS4814; normalized to RIBOGREEN; Yap1 mRNA relative to untreated control cells

| Substance | YAP1 (% UTC) |
| --- | --- |
| 716405 (kT*kG*kT*dT*dA*dA*dG*dG*dA*dA*dA*dG*dG*kA*kT*k[5mC]; antisense) [Compound 716405] | 149 % UTC |
| 716456 (kA*k[5mC]*k[5mC]*dA*d[5mC]*dA*d[5mC]*dT*dA*dT*dT*dA*dT*kA*kA*kA; antisense) [Compound 716456] | 96 % UTC |
| 716369 (k[5mC]*kG*kG*d[5mC]*dG*dG*d[5mC]*dT*dT*dG*dA*dA*dG*kA*kA*kG; antisense) [Compound 716369] | 94 % UTC |

Same assay, conditions: Table 18; A-431 cells, 5,000 cells per well, free uptake, 2,000 nM modified oligonucleotide, approx. 48 hours; RTS4814; normalized to RIBOGREEN; Yap1 mRNA as percent of untreated control

| Substance | YAP1 (% UTC) |
| --- | --- |
| 1074820 (kA*kA*kG*dT*dG*dT*dT*dA*dA*dG*d[5mC]*dA*d[5mC]*kT*kG*kA; antisense) [Compound 1074820] | 85 % UTC |
| 1075652 (kG*kT*kA*dT*dA*dT*dT*dA*d[5mC]*dA*dA*dT*d[5mC]*k[5mC]*k[5mC]*kA; antisense) [Compound 1075652] | 40 % UTC |
| 1076132 (k[5mC]*kA*kT*d[5mC]*dA*dA*dT*dA*d[5mC]*dT*dG*dA*d[5mC]*kA*kT*k[5mC]; antisense) [Compound 1076132] | 28 % UTC |
| 1075524 (kT*kA*kA*dT*dT*dA*dA*dG*dG*dG*d[5mC]*d[5mC]*d[5mC]*kA*k[5mC]*kA; antisense) [Compound 1075524] | 71 % UTC |
| 1074500 (k[5mC]*kT*kA*d[5mC]*dA*dA*dT*dA*dA*d[5mC]*d[5mC]*dA*dT*k[5mC]*k[5mC]*k[5mC]; antisense) [Compound 1074500] | 10 % UTC |

Same assay, conditions: Table 19; A-431 cells, 5,000 cells per well, free uptake, 2,000 nM modified oligonucleotide, approx. 48 hours; RTS4814; normalized to RIBOGREEN; Yap1 mRNA as percent of untreated control

| Substance | YAP1 (% UTC) |
| --- | --- |
| 1076261 (k[5mC]*k[5mC]*k[5mC]*d[5mC]*dA*dA*d[5mC]*dA*dA*dG*dT*dT*d[5mC]*k[5mC]*kT*kG; antisense) [Compound 1076261] | 39 % UTC |
| 1075653 (k[5mC]*kA*kT*dA*dA*dA*d[5mC]*dT*d[5mC]*dT*dG*d[5mC]*dT*kG*kT*k[5mC]; antisense) [Compound 1075653] | 58 % UTC |
| 1075365 (k[5mC]*kA*k[5mC]*dG*dA*dA*dA*dA*dT*dA*dG*dT*dT*k[5mC]*kT*k[5mC]; antisense) [Compound 1075365] | 11 % UTC |

Same assay, conditions: Table 20; Yap1 mRNA, percent of untreated control; 3-10-3 cEt gapmers targeting SEQ ID NO.: 1 and 2

| Substance | YAP1 (% UTC) |
| --- | --- |
| 1075142 (antisense kG*kA*kT*dA*dT*dA*d[5mC]*dG*dA*dG*dA*dA*dG*kT*kT*kG) [Compound 1075142] | 16 % UTC |
| 1074854 (antisense kA*k[5mC]*kA*dA*dT*dT*dG*dT*dT*dA*dT*dG*dA*kT*kA*kG) [Compound 1074854] | 23 % UTC |
| 1076006 (kT*kT*kT*dA*dA*dA*d[5mC]*d[5mC]*dT*dG*dA*dG*dA*k[5mC]*kT*k[5mC]; antisense) [Compound 1076006] | 41 % UTC |
| 1074566 (antisense k[5mC]*kA*k[5mC]*dT*dG*dA*dA*dT*dT*d[5mC]*d[5mC]*dA*dA*kT*k[5mC]*kG) [Compound 1074566] | 3 % UTC |
| 1076326 (kG*k[5mC]*kT*dA*dA*dT*dA*dA*dT*dG*dG*dA*dA*kG*kA*kG; antisense) [Compound 1076326] | 4 % UTC |

Same assay, conditions: Table 21; Yap1 mRNA, percent of untreated control; 3-10-3 cEt gapmers targeting SEQ ID NO.: 1 and 2

| Substance | YAP1 (% UTC) |
| --- | --- |
| 1074343 (antisense kA*kG*kA*d[5mC]*dA*dT*d[5mC]*d[5mC]*d[5mC]*dG*dG*dG*dA*kG*kA*kA) [Compound 1074343] | 18 % UTC |
| 1075303 (kT*kA*kA*dA*d[5mC]*dT*dA*dA*dT*d[5mC]*dT*dA*d[5mC]*kA*kA*k[5mC]; antisense) [Compound 1075303] | 100 % UTC |

Same assay, conditions: Table 23; Yap1 mRNA as percent of untreated control; 3-10-3 cEt gapmers; single dose

| Substance | YAP1 (% UTC) |
| --- | --- |
| 1075465 (antisense kG*kA*kT*dT*dT*dA*dT*dT*dG*dA*dA*d[5mC]*dT*kG*kA*kG) [Compound 1075465] | 7 % UTC |
| 1075497 (kA*kT*kT*dA*dT*dA*dT*dA*dA*dT*dG*d[5mC]*dA*kG*kG*k[5mC]; antisense) [Compound 1075497] | 14 % UTC |
| 1076297 (kT*kT*kA*dT*dA*dA*dA*dG*dA*d[5mC]*d[5mC]*d[5mC]*dA*kA*kT*kG; antisense) [Compound 1076297] | 52 % UTC |

Same assay, conditions: Table 24; Yap1 mRNA as percent of untreated control; 3-10-3 cEt gapmers targeting SEQ ID NO.: 1, and 2

| Substance | YAP1 (% UTC) |
| --- | --- |
| 1076554 (antisense kT*kG*kG*dG*dA*dA*dT*dA*dG*dT*dG*dA*dA*kT*kT*kT) [Compound 1076554] | 30 % UTC |
| 1075498 (k[5mC]*kA*kT*dT*dA*dT*dA*dT*dA*dA*dT*dG*d[5mC]*kA*kG*kG; antisense) [Compound 1075498] | 9 % UTC |
| 1075562 (kG*kT*kA*dT*dT*dT*dA*dT*dG*dG*d[5mC]*dA*dA*k[5mC]*kA*kT; antisense) [Compound 1075562] | 15 % UTC |

Same assay, conditions: Table 25; Yap1 mRNA as percent of untreated control; 3-10-3 cEt gapmers targeting SEQ ID NO.: 1, and 2

| Substance | YAP1 (% UTC) |
| --- | --- |
| 1074475 (kA*k[5mC]*k[5mC]*dA*dA*d[5mC]*d[5mC]*d[5mC]*d[5mC]*d[5mC]*d[5mC]*d[5mC]*dA*k[5mC]*k[5mC]*kG; antisense) [Compound 1074475] | 72 % UTC |
| 1075179 (antisense kA*kA*kT*dT*dA*dG*d[5mC]*d[5mC]*dG*dG*dT*d[5mC]*d[5mC]*k[5mC]*kA*kG) [Compound 1075179] | 107 % UTC |

Same assay, conditions: Table 32; Yap1 mRNA, percent of untreated control; 3-10-3 cEt gapmers targeting SEQ ID NO.: 1, and 2

| Substance | YAP1 (% UTC) |
| --- | --- |
| 1075858 (antisense k[5mC]*k[5mC]*kT*dT*dA*dA*dA*d[5mC]*dA*dA*dT*d[5mC]*d[5mC]*k[5mC]*kT*kA) [compound 1075858] | 23 % UTC |
| 1076082 (kT*k[5mC]*kT*d[5mC]*dA*dA*dT*dA*d[5mC]*dA*d[5mC]*dT*dA*kT*kA*kT; antisense) [compound 1076082] | 38 % UTC |
| 1076562 (kT*kA*kT*dT*dA*d[5mC]*dA*dG*dA*dG*dG*dG*dT*kA*kG*k[5mC]; antisense) [compound 1076562] | 17 % UTC |
| 1074962 (antisense kA*kG*kG*d[5mC]*dA*dA*dG*d[5mC]*dA*dG*d[5mC]*dT*dA*kA*kA*kT) [compound 1074962] | 78 % UTC |
| 1076274 (kT*kG*kA*dG*dA*dA*dT*dA*dG*dA*dG*d[5mC]*dA*kG*kG*kT; antisense) [compound 1076274] | 9 % UTC |
| 1076402 (antisense k[5mC]*kG*kT*dA*dA*dT*dT*dA*dT*dT*dT*dT*dT*kG*k[5mC]*kT) [compound 1076402] | 38 % UTC |

Same assay, conditions: Table 33; Yap1 mRNA, percent of untreated control; 3-10-3 cEt gapmers targeting SEQ ID NO.: 1, and 2

| Substance | YAP1 (% UTC) |
| --- | --- |
| 1074707 (antisense kT*kT*kT*dA*dA*dT*dG*dG*d[5mC]*dA*dG*d[5mC]*dA*k[5mC]*kG*kG) [compound 1074707] | 36 % UTC |

Same assay, conditions: Yap1 mRNA as percent of untreated control; A-431 cells; 3-10-3 cEt gapmers targeting SEQ ID NO.: 1, and 2; Table 30

| Substance | YAP1 (% UTC) |
| --- | --- |
| 1076208 (kG*kA*kG*dG*dA*dA*dT*dA*dT*dT*dA*d[5mC]*dA*kG*kA*k[5mC]; antisense) [compound 1076208] | 15 % UTC |
| 1076080 (k[5mC]*kA*kT*dT*dA*dG*d[5mC]*dA*dG*dT*dT*d[5mC]*dA*k[5mC]*kT*kA; antisense) [compound 1076080] | 55 % UTC |
| 1074416 (k[5mC]*kT*kT*dT*dA*dG*dA*dG*d[5mC]*d[5mC]*dA*dA*d[5mC]*kT*kG*kT; antisense) [compound 1074416] | 9 % UTC |

Same assay, conditions: Yap1 mRNA as percent of untreated control; A-431 cells; 3-10-3 cEt gapmers targeting SEQ ID NO.: 1, and 2; Table 31

| Substance | YAP1 (% UTC) |
| --- | --- |
| 1075345 (antisense kG*kT*kA*dA*d[5mC]*dT*dA*dA*dA*dA*dG*dG*dG*kA*kG*kT) [compound 1075345] | 29 % UTC |
